Reference: paper PMC9977398, “Next-generation membrane-active glycopeptide antibiotics that also inhibit bacterial cell division” (Chemical Science, 2023)
Converted amounts (≈) assume the structure as drawn. Where two headings read alike, the source gives them in different places.

How the values were obtained:
[1] = tested on: VRE (VanA phenotype); parameters: method as in PMID 27663982, PMID 24846441, PMID 14972384; conditions: cited from earlier work
[2] = tested on: AB 1425 (A. baumannii MTCC 1425); test: MIC determination, micro-dilution broth; type: cell-based; conditions: Acinetobacter baumannii, MTCC1425; read-out: Minimum inhibitory concentration, AB 1425
Experimental: (§1) The increase in the carbon content of substituted moieties from six (1) to seven (2 and 3) to ten (5) to twelve (4), increased activity. […]
(§2) Test compound was assayed in a micro -dilution broth format as per the CLSI guideline. The bacterial freeze dried stock samples were stored at -80 °C. About 5 μL of these stocks were added to 3 mL of the respective broth and the culture was grown for 6 h at 37°C with prior to the experiments. This 6 h grown culture was diluted to give effective cell concentration of 10 5 CFU/mL which was then used for determining MIC. Compounds were serially diluted 2 -fold, in sterile millipore water and 50 μL of these serial dilutions were added to the wells of 96 well plate followed by the addition of about 150 μL of bacterial solution. The plates were then incubated for 18-24 h at 37 °C. The O.D. value at 600 nm was recorded using TECAN (Infinite series, M200 pro) Plate Reade r. Each concentration had triplicate values and the whole experiment was done at least twice and the MIC value was determined by taking the average of triplicate O. D. values for each concentration and plotting it against concentration. The data was then subjected to sigmoidal fitting. From the curve the MIC value was determined, as the point where the O. D. was similar to that of control having no bacteria.

[3] = tested on: AB R674 (A. baumannii); test: MIC determination, micro-dilution broth; type: cell-based; conditions: Acinetobacter baumannii; read-out: Minimum inhibitory concentration, AB R674
Experimental: as §1, §2

[4] = tested on: MRSA, methicillin-resistant S. aureus (ATCC 33591); test: MIC determination, micro-dilution broth; type: cell-based; conditions: Staphylococcus aureus; MRSA ATCC 33591; read-out: Minimum inhibitory concentration, MRSA
Experimental: as §1, §2

[5] = tested on: PA R590 (MDR strain of P. aeruginosa); test: MIC determination, micro-dilution broth; type: cell-based; conditions: Pseudomonas aeruginosa; read-out: Minimum inhibitory concentration, PA R590
Experimental: as §1, §2

[6] = tested on: VRE 51559 (vancomycin-resistant E. faecium, VanA phenotype, ATCC 51559); test: MIC determination, micro-dilution broth; type: cell-based; conditions: Enterococcus; read-out: Minimum inhibitory concentration, VRE 51559
Experimental: as §1, §2

[7] = tested on: VRE 51575 (vancomycin-resistant E. faecalis, VanB phenotype, ATCC 51575); test: MIC determination, micro-dilution broth; type: cell-based; conditions: Enterococcus; read-out: Minimum inhibitory concentration, VRE 51575
Experimental: as §1, §2

[8] = tested on: VRSA 1 (vancomycin-resistant S. aureus); test: MIC determination, micro-dilution broth; type: cell-based; conditions: Staphylococcus aureus, read-out: Minimum inhibitory concentration, VRSA 1
Experimental: as §1, §2

[9] = tested on: VRSA 12 (vancomycin-resistant S. aureus); test: MIC determination, micro-dilution broth; type: cell-based; conditions: Staphylococcus aureus, read-out: Minimum inhibitory concentration, VRSA 12
Experimental: as §1, §2

[10] = tested on: VRSA 4 (vancomycin-resistant S. aureus); test: MIC determination, micro-dilution broth; type: cell-based; conditions: Staphylococcus aureus, read-out: Minimum inhibitory concentration, VRSA 4
Experimental: as §1, §2

[11] = tested on: human erythrocytes; test: Haemolysis assay; type: cell-based
Experimental: To select the lead compounds, the toxicity of 1–10 was tested against human erythrocytes as their hemolytic activity (HC50). The HC50 is determined as the concentration at which 50% of the compound treated cells are lysed. […] The HC50 for compounds 6–8 was also greater than 500 μM. […] Based on the in vitro activity and hemolysis studies, VanQbiph (4) from the aryl-substituted compounds and VanQAmC10 (8) from the alkyl-chain substituted compounds were selected for further investigations. […] VanQAmC10 (8) was additionally non-toxic to RAW 264.7 cells up to 40 μM and was therefore taken forward in vivo investigation.[18]
50 μL of serially diluted compound was added into 96 well microtiter plates. Freshly drawn, heparanized human blood was centrifuged down to obtain the erythrocytes and re-suspended to 5 vol % in PBS (pH 7.4). 150 μL of the erythrocyte suspension was added to the serially diluted compounds (from 500 µM to 2 µM). One set without compound and other with 50 μL of 1 vol % solution of Triton X-100 were kept as controls. The plates were incubated at 37 °C for 1 h followed by centrifugation at 3,500 rpm for 5 min. 100 μL of the supernatant from each well were transferred into fresh microtiter plates, and A540 was measured.
% haemolysis = (A - A0)/(Atotal -A0) × 100, where A is the absorbance of the test well, A 0 the absorbance of the negative controls (without compound), and A total the absorbance of 100 % hemolysis wells (with Triton X -100), all at 540 nm. […]

| Compound | MIC [2] | MIC [3] | MIC [4] | MIC [5] | MIC [6] | MIC [7] | MIC [8] | MIC [9] | MIC [10] | MIC against VRE (VanA phenotype) [1] | HC50 [11] | HC50 ([11]; human, 1 h, pH 7.4) |
| --- | --- | --- | --- | --- | --- | --- | --- | --- | --- | --- | --- | --- |
| CN[C@H]1C(=O)N[C@@H]2Cc3ccc(cc3)Oc3cc4cc(c3O[C@@H]3O[C@H](C(=O)O)[C@@H](O)[C@H](O)[C@H]3NC(=O)CCCCCCCCC(C)C)Oc3ccc(cc3Cl)[C@@H](O)[C@@H]3NC(=O)[C@H](NC(=O)[C@@H]4NC(=O)[C@@H](NC2=O)c2cc(cc(O)c2Cl)Oc2cc1ccc2O)c1ccc(O)c(c1)-c1c(O[C@H]2O[C@H](CO)[C@@H](O)[C@H](O)[C@@H]2O)cc(O)cc1[C@@H](C(=O)NCCCN(C)C)NC3=O [dalbavancin] |  |  |  |  |  |  |  |  |  | 18 µM (≈ 32.7 µg/mL) |  |  |
| CCCCCCCCCCNCCN[C@@]1(C)C[C@H](O[C@H]2[C@H](Oc3c4cc5cc3Oc3ccc(cc3Cl)[C@@H](O)[C@@H](NC(=O)[C@@H](CC(C)C)NC)C(=O)N[C@@H](CC(N)=O)C(=O)N[C@H]5C(=O)N[C@H]3C(=O)N[C@H](C(=O)N[C@H](C(=O)O)c5cc(O)c(CNCP(=O)(O)O)c(O)c5-c5cc3ccc5O)[C@H](O)c3ccc(c(Cl)c3)O4)O[C@H](CO)[C@@H](O)[C@@H]2O)O[C@@H](C)[C@H]1O [telavancin] |  |  |  |  |  |  |  |  |  | 4 µM (≈ 7.02 µg/mL) |  |  |
| CCCCCCCCCCCCCCNC(=O)C[N+](C)(C)CCCNC(=O)C1NC(=O)C2NC(=O)C(NC(=O)C3NC(=O)C(CC(N)=O)NC(=O)C(NC(=O)C(CC(C)C)NC)C(O)c4ccc(c(Cl)c4)Oc4cc3cc(c4OC3OC(CO)C(O)C(O)C3OC3CC(C)(N)C(O)C(C)O3)Oc3ccc(cc3Cl)C2O)c2ccc(O)c(c2)-c2c(O)cc(O)cc21 (stereo not shown) [VanQAmC14 (10)] | 6.3 µM | 12.5 µM | 6.25 µM | 6.3 µM | 1.5 µM | 3.1 µM | 3 µM | 3 µM | 1.5 µM |  | caused hemolysis | 150 µM |
| CN[C@H](CC(C)C)C(=O)N[C@H]1C(=O)N[C@@H](CC(N)=O)C(=O)N[C@H]2C(=O)N[C@H]3C(=O)N[C@H](C(=O)N[C@H](C(=O)O)c4cc(O)cc(O)c4-c4cc3ccc4O)[C@H](O[C@H]3C[C@](C)(N)[C@@H](O)[C@H](C)O3)c3ccc(c(Cl)c3)Oc3cc2cc(c3O[C@@H]2O[C@H](CO)[C@@H](O)[C@H](O)[C@H]2O[C@H]2C[C@](C)(NCc3ccc(-c4ccc(Cl)cc4)cc3)[C@@H](O)[C@H](C)O2)Oc2ccc(cc2Cl)[C@H]1O [oritavancin] |  |  |  |  |  |  |  |  |  | 0.14 µM (≈ 0.251 µg/mL) |  |  |
| CNC(CC(C)C)C(=O)NC1C(=O)NC(CC(N)=O)C(=O)NC2C(=O)NC3C(=O)NC(C(=O)NC(C(=O)NCCC[N+](C)(C)Cc4ccc(C)cc4)c4cc(O)cc(O)c4-c4cc3ccc4O)C(O)c3ccc(c(Cl)c3)Oc3cc2cc(c3OC2OC(CO)C(O)C(O)C2OC2CC(C)(N)C(O)C(C)O2)Oc2ccc(cc2Cl)C1O (stereo not shown) [VanQtol (2)] | > 30 µM | 25.3 µM | 1 µM | > 30 µM | > 30 µM | > 30 µM | > 30 µM | > 30 µM | 16 µM |  |  | >500 µM |

Now from value to compound, other results behind:

| MIC [2] | MIC [3] | MIC [4] | MIC [5] | MIC [6] | MIC [7] | MIC [8] | MIC [9] | MIC [10] | Compound | MIC against VRE (VanA phenotype) [1] | HC50 [11] | HC50 ([11]; human, 1 h, pH 7.4) |
| --- | --- | --- | --- | --- | --- | --- | --- | --- | --- | --- | --- | --- |
| 6.3 µM | 6.3 µM | 3.12 µM | 6.3 µM | 1.5 µM | 3.1 µM | 1.5 µM | 3 µM | 0.7 µM | CCCCCCCCCCCCNC(=O)C[N+](C)(C)CCCNC(=O)C1NC(=O)C2NC(=O)C(NC(=O)C3NC(=O)C(CC(N)=O)NC(=O)C(NC(=O)C(CC(C)C)NC)C(O)c4ccc(c(Cl)c4)Oc4cc3cc(c4OC3OC(CO)C(O)C(O)C3OC3CC(C)(N)C(O)C(C)O3)Oc3ccc(cc3Cl)C2O)c2ccc(O)c(c2)-c2c(O)cc(O)cc21 (stereo not shown) [VanQAmC12 (9)] |  | caused hemolysis | 350 µM |
| > 30 µM | 25.5 µM | 1 µM | > 30 µM | > 30 µM | > 30 µM | > 30 µM | > 30 µM | > 30 µM | CNC(CC(C)C)C(=O)NC1C(=O)NC(CC(N)=O)C(=O)NC2C(=O)NC3C(=O)NC(C(=O)NC(C(=O)NCCC[N+](C)(C)Cc4ccccc4)c4cc(O)cc(O)c4-c4cc3ccc4O)C(O)c3ccc(c(Cl)c3)Oc3cc2cc(c3OC2OC(CO)C(O)C(O)C2OC2CC(C)(N)C(O)C(C)O2)Oc2ccc(cc2Cl)C1O (stereo not shown) [VanQph (1)] |  |  | >500 µM |
| 25 µM | 12.5 µM | 0.8 µM | 12.5 µM | 25 µM | > 30 µM | > 30 µM | > 30 µM | 6.3 µM | CCCCCCNC(=O)C[N+](C)(C)CCCNC(=O)C1NC(=O)C2NC(=O)C(NC(=O)C3NC(=O)C(CC(N)=O)NC(=O)C(NC(=O)C(CC(C)C)NC)C(O)c4ccc(c(Cl)c4)Oc4cc3cc(c4OC3OC(CO)C(O)C(O)C3OC3CC(C)(N)C(O)C(C)O3)Oc3ccc(cc3Cl)C2O)c2ccc(O)c(c2)-c2c(O)cc(O)cc21 (stereo not shown) [VanQAmC6 (6)] |  |  | >500 µM |
| > 30 µM | 24.6 µM | 1 µM | 24.6 µM | > 30 µM | > 30 µM | > 30 µM | > 30 µM | 15.8 µM | CNC(CC(C)C)C(=O)NC1C(=O)NC(CC(N)=O)C(=O)NC2C(=O)NC3C(=O)NC(C(=O)NC(C(=O)NCCC[N+](C)(C)Cc4ccc(C(F)(F)F)cc4)c4cc(O)cc(O)c4-c4cc3ccc4O)C(O)c3ccc(c(Cl)c3)Oc3cc2cc(c3OC2OC(CO)C(O)C(O)C2OC2CC(C)(N)C(O)C(C)O2)Oc2ccc(cc2Cl)C1O (stereo not shown) [VanQphCF3 (3)] |  |  | >500 µM |
| > 30 µM | 24.8 µM | 1 µM | > 30 µM | 25 µM | 25 µM | > 30 µM | > 30 µM | 3.9 µM | CNC(CC(C)C)C(=O)NC1C(=O)NC(CC(N)=O)C(=O)NC2C(=O)NC3C(=O)NC(C(=O)NC(C(=O)NCCC[N+](C)(C)Cc4cccc5ccccc45)c4cc(O)cc(O)c4-c4cc3ccc4O)C(O)c3ccc(c(Cl)c3)Oc3cc2cc(c3OC2OC(CO)C(O)C(O)C2OC2CC(C)(N)C(O)C(C)O2)Oc2ccc(cc2Cl)C1O (stereo not shown) [VanQnaph (5)] |  |  | >500 µM |
| 12.5 µM | 12.5 µM | 0.8 µM | 6.3 µM | 12.5 µM | 25 µM | 3.1 µM | > 30 µM | 3.1 µM | CCCCCCCCNC(=O)C[N+](C)(C)CCCNC(=O)C1NC(=O)C2NC(=O)C(NC(=O)C3NC(=O)C(CC(N)=O)NC(=O)C(NC(=O)C(CC(C)C)NC)C(O)c4ccc(c(Cl)c4)Oc4cc3cc(c4OC3OC(CO)C(O)C(O)C3OC3CC(C)(N)C(O)C(C)O3)Oc3ccc(cc3Cl)C2O)c2ccc(O)c(c2)-c2c(O)cc(O)cc21 (stereo not shown) [VanQAmC8 (7)] |  |  | >500 µM |
